Legend:
[1] = tested on: murine B-cell tumors; assay: Tumor exposure and retention (FIGS. 3 and 4); type: in vivo
[2] = Plasma levels >IC90 and plasma versus tissue levels on intermittent dosing (FIGS. 6A-6B); type: in vivo, human; conditions: FIG. 6A
Text: There is also evidence pointing to a role for the PI3K pathway in T lymphocytes, which may explain these immune dysregulations. For example, in mice, genetic inactivation of p110δ results in a decrease of the function of regulatory T-cells (TREGs), a subset population of T-cells. […] In some instances, PI3K5 inhibition results in various immune-mediated toxicities such as enterocolitis and skin toxicity due to TREG suppression, as well as infections due to suppression of B-cells and effector T-cells. In some instances, treatment regimens with small molecule PI3K5 delta (or PI3K5) inhibitors on an intermittent dosing schedule (IS) are used. However, in certain instances, progression of disease is observed in subjects who are treated for B-cell malignancies, including chronic lymphocytic leukemia (CLL) and lymphomas with small molecule PI3K5 inhibitors (e.g., parsaclisib (INCB050465)) on an IS dosing regimen (see FIG. 6B). […] In some embodiments, the methods of treatment and dosing regimens and schedules described herein provide an efficacious and tolerable treatment of cancer. In some embodiments, the methods of treatment and dosing regimens and schedules described herein improve the frequency, severity and time to onset of the adverse events (AEs) associated with PI3K delta inhibitors. […]

[3] = Plasma half-life; type: in vivo; conditions: human, oral, healthy volunteers and patients with B-cell malignancies
Text: It is known that administration of an oral drug over a period equivalent to approximately 7 half-lives is necessary to achieve steady state plasma concentrations required for optimal antitumor activity, and that a period of approximately 7 half-lives is needed to clear a drug from the plasma after treatment interruption. TREGs repopulation occurs approximately 14 days after the administration of a single dose of the anti-CD25 immunotoxin denileukin diftitox (ONTAK®), a drug known to suppress TREGs. Therefore, it was hypothesized that administration of Compound A35 at 60 mg/day for 7 consecutive days will result in steady-state plasma concentrations sufficient to inhibit PI3K5 in target malignant B-cells and that 21 days without treatment will be sufficient to repopulate TREGs, which comprises 7 days to clear Compound A35 from the plasma (˜7 half-lives) and 14 days for reconstitution of TREGs after Compound A35 is cleared from the plasma.

[4] = tested on: patients with relapsed B-cell malignancies; assay: Phase 1b study: patient dispositions on intermittent or continuous schedule; type: in vivo, human; conditions: Compound A35 alone arm
Protocol: (§1) An intermittent dosing schedule on days 1-7 of a 28-day cycle was then evaluated after 2 cycles of daily dosing, or ≥3 cycles of daily dosing to reduce the risk of immune-related adverse events. For this analysis the intermittent schedule (IS) group is defined as patients who received Compound A35 alone or with rituximab daily for 2 cycles then switched to an intermittent schedule of 1 week per cycle, and the continuous schedule (CS) group is defined as patients who never switched to intermittent dosing or switched to intermittent dosing in cycle 4 or later cycles. Toxicity on CS is managed by a switch to IS.
In an ongoing Phase 1b study, Compound A35 was administered as a single agent in patients with relapsed B-cell malignancies. Patients have been enrolled in 3 cohorts: • Group A: 31 patients enrolled in a dose escalation phase of the study, with Compound A35 administered as a single agent at a dose of 60, 120, and 180 mg/day. In Group A, all patients began receiving Compound A35 on a CS. Approximately 1.5 years after the start of the study, 17 ongoing patients were switched to the IS to prevent delayed immune-mediated toxicities after various duration of exposure on the CS.
• Group B: 21 patients enrolled in an ongoing expansion cohort of up to 30 patients administered Compound A35 as a single agent at 60 mg/day on the CS for 2 cycles then switching to the IS in Cycle 3 (N=17) or later cycles (N=4).

[5] = tested on: patients with relapsed B-cell malignancies (FL, CLL/SLL); assay: Phase 1b study of Compound A35 as single agent: disease response rate; type: in vivo, human
Protocol: as §1
In an ongoing Phase 1b study, Compound A35 was administered as a single agent in patients with relapsed B-cell malignancies. Patients have been enrolled in 3 cohorts: • Group A: 31 patients enrolled in a dose escalation phase of the study, with Compound A35 administered as a single agent at a dose of 60, 120, and 180 mg/day. In Group A, all patients began receiving Compound A35 on a CS. Approximately 1.5 years after the start of the study, 17 ongoing patients were switched to the IS to prevent delayed immune-mediated toxicities after various duration of exposure on the CS. […]
31 patients received Compound A35 monotherapy at doses ≥60 mg daily on the CS, of whom 2 discontinued Compound A35 in the first 2 cycles of therapy and 29 received >2 cycles.
A very high rate of disease response was reported in 30 patients evaluable for response in the dose escalation cohort, both in FL and CLL/SLL, with no difference in response rate across the 3 doses evaluated (Table 2).

[6] = All evaluable patients, 60 mg, n = 12
[7] = All evaluable patients, 120 mg, n = 12
[8] = All evaluable patients, 180 mg, n = 6
[9] = All evaluable patients, Total (all doses), n = 30
[10] = CLL/SLL, Total (all doses), n = 9
[11] = FL evaluable, Total (all doses), n = 21

CN1CCC(c2ccccc2CC(C)(C)Nc2nc(N3CCOCC3)nc(-n3c(C(F)F)nc4ccccc43)n2)CC1 [Compound A35]
retention in murine B-cell tumors compared to idelalisib ([1]; FIG. 4): preferential retention
tumor exposure ([1]; over a 4-hour and 24-hour period (FIG. 3)): preferential tumor exposure
plasma levels versus tissue levels [2]: plasma levels underestimate tissue levels
half-life [3]: ~28 h
Discontinued therapy: Adverse event ([4]; CS Group (N = 25)): (16%)
Discontinued therapy: Adverse event, number of patients ([4]; CS Group (N = 25)): 4
Discontinued therapy: Progressive disease ([4]; CS Group (N = 25)): (20%)
Discontinued therapy: Progressive disease, number of patients ([4]; CS Group (N = 25)): 5
Discontinued therapy: Adverse event, number of patients ([4]; IS Group (N = 15)): 0
Discontinued therapy: Progressive disease ([4]; IS Group (N = 15)): (20%)
Discontinued therapy: Progressive disease, number of patients ([4]; IS Group (N = 15)): 3
Morphologic and/or metabolic complete response [5, 6]: (42%)
Morphologic and/or metabolic complete response, number of patients [5, 6]: 5
Overall response rate [5, 6]: (92%)
Overall response rate, number of patients [5, 6]: 11
Morphologic and/or metabolic complete response [5, 7]: (33%)
Morphologic and/or metabolic complete response, number of patients [5, 7]: 4
Overall response rate [5, 7]: (92%)
Overall response rate, number of patients [5, 7]: 11
Morphologic and/or metabolic complete response, number of patients [5, 8]: 0
Overall response rate [5, 8]: (83%)
Overall response rate, number of patients [5, 8]: 5
Morphologic and/or metabolic complete response [5, 9]: (30%)
Morphologic and/or metabolic complete response, number of patients [5, 9]: 9
Overall response rate [5, 9]: (90%)
Overall response rate, number of patients [5, 9]: 27
Morphologic complete response ([5]; CLL/SLL, 60 mg, n = 6): (50%)
Morphologic complete response, number of patients ([5]; CLL/SLL, 60 mg, n = 6): 3
Overall response rate ([5]; CLL/SLL, 60 mg, n = 6): (100%)
Overall response rate, number of patients ([5]; CLL/SLL, 60 mg, n = 6): 6
Morphologic complete response, number of patients ([5]; CLL/SLL, 120 mg, n = 2): 0
Overall response rate ([5]; CLL/SLL, 120 mg, n = 2): (100%)
Overall response rate, number of patients ([5]; CLL/SLL, 120 mg, n = 2): 2
Morphologic complete response, number of patients ([5]; CLL/SLL, 180 mg, n = 1): 0
Overall response rate ([5]; CLL/SLL, 180 mg, n = 1): (100%)
Overall response rate, number of patients ([5]; CLL/SLL, 180 mg, n = 1): 1
Morphologic complete response [5, 10]: (33%)
Morphologic complete response, number of patients [5, 10]: 3
Overall response rate [5, 10]: (100%)
Overall response rate, number of patients [5, 10]: 9
Morphologic and/or metabolic complete response ([5]; FL evaluable, 60 mg, n = 6): (33%)
Morphologic and/or metabolic complete response, number of patients ([5]; FL evaluable, 60 mg, n = 6): 2
Overall response rate ([5]; FL evaluable, 60 mg, n = 6): (83%)
Overall response rate, number of patients ([5]; FL evaluable, 60 mg, n = 6): 5
Morphologic and/or metabolic complete response ([5]; FL evaluable, 120 mg, n = 10): (40%)
Morphologic and/or metabolic complete response, number of patients ([5]; FL evaluable, 120 mg, n = 10): 4
Overall response rate ([5]; FL evaluable, 120 mg, n = 10): (90%)
Overall response rate, number of patients ([5]; FL evaluable, 120 mg, n = 10): 9
Morphologic and/or metabolic complete response, number of patients ([5]; FL evaluable, 180 mg, n = 5): 0
Overall response rate ([5]; FL evaluable, 180 mg, n = 5): (80%)
Overall response rate, number of patients ([5]; FL evaluable, 180 mg, n = 5): 4
Morphologic and/or metabolic complete response [5, 11]: (21%)
Morphologic and/or metabolic complete response, number of patients [5, 11]: 6
Overall response rate [5, 11]: (86%)
Overall response rate, number of patients [5, 11]: 18

— patent publication US20210299134A1, “TREATMENT OF B CELL MALIGNANCIES” (MEI Pharma, Inc., priority 2018, published 2021)
